The text below walks through data of ChEMBL document CHEMBL1125230, “Analysis of the in vitro antitumor activity of novel purine-6-sulfenamide, -sulfinamide, and -sulfonamide nucleosides and certain related compounds using a computer-aided receptor modeling procedure” (1991).

The assay deals with L1210. Briefly: In vitro growth inhibition of L1210 tumor cells. The format is functional, Mus musculus.
`NS(=O)(=O)c1ncnc2c1ncn2[C@@H]1O[C@H](CO)[C@@H](O)[C@@H]1O`: the “Log 1/ID50” value came to 4.
Take `NS(=O)(=O)c1ncnc2c1ncn2[C@@H]1O[C@H](CO)[C@@H](O)[C@H]1O`: the “Log 1/ID50” value is listed as 4.92.
To `NSc1nc(N)nc2c1ncn2[C@H]1C[C@H](O)[C@@H](CO)O1` belongs 6.06; to `NSc1ncnc2c1ncn2[C@H]1C[C@H](O)[C@@H](CO)O1`, 6.66.
To `NS(=O)(=O)c1ncnc2c1ncn2[C@H]1C[C@H](O)[C@@H](CO)O1` belongs 4.56.
On to `NSc1ncnc2c([C@@H]3O[C@H](CO)[C@@H](O)[C@H]3O)n[nH]c12`, for which the “Log 1/ID50” value is listed as 4.69.
Regarding `N=C1N=C(S)C2N=CN([C@H]3C[C@H](O)[C@@H](CO)O3)C2=N1` (stereo partly specified), the “Log 1/ID50” value was found to be 7.3.
Consider `NSc1ncnc2c1ncn2C1O[C@H](CO)[C@@H](O)[C@H]1O` (stereo partly specified), for which the “Log 1/ID50” value is reported as 5.22.
To `C[C@H]1OC(n2cnc3c(SN)nc(N)nc32)[C@H](O)[C@@H]1O` (stereo partly specified) belongs 6; to `Nc1nc(S(N)(=O)=O)c2ncn(C3O[C@H](CO)[C@@H](O)[C@H]3O)c2n1` (stereo partly specified), 5.7; to `NC(=O)c1ncnc2c1cnn2C1O[C@H](CO)[C@@H](O)[C@H]1O` (stereo partly specified), 4.38.
The result for `NSc1nc(N)nc2c1ncn2C1O[C@H](CO)[C@@H](O)[C@H]1O` (stereo partly specified) reads 6.52; that for `C[C@H]1OC(n2cnc3c(S(N)(=O)=O)nc(N)nc32)[C@H](O)[C@@H]1O` (stereo partly specified), 5.42; that for `NSc1ncnc2c1cnn2C1O[C@H](CO)[C@@H](O)[C@H]1O` (stereo partly specified), 4.51.
As to `Nc1nc([S+](N)[O-])c2ncn([C@@H]3C[C@@H](O)[C@H](CO)O3)c2n1` (mixture of isomers), the “Log 1/ID50” value turned out to be 4.45.
Regarding `N[S+]([O-])c1ncnc2c1ncn2[C@@H]1C[C@@H](O)[C@H](CO)O1` (mixture of isomers), the “Log 1/ID50” value is given as 4.6.
To `Nc1cc2c(ncn2C2O[C@H](CO)[C@@H](O)[C@H]2O)c([S+](N)[O-])n1` (mixture of isomers) belongs 3.
The result for `Nc1nc([S+](N)[O-])c2ncn(C3O[C@H](CO)[C@@H](O)[C@H]3O)c2n1` (mixture of isomers) reads 6; that for `N[S+]([O-])c1ncnc2c1ncn2C1O[C@H](CO)[C@@H](O)[C@H]1O` (mixture of isomers), 4; that for `C[C@H]1OC(n2cnc3c([S+](N)[O-])nc(N)nc32)[C@H](O)[C@@H]1O` (mixture of isomers), 5.55.
As for `Nc1nc([S+](N)[O-])c2ncn([C@@H]3C[C@@H](O)[C@H](CO)O3)c2n1` (stereo in doubt; 9), the “Log 1/ID50” value is given as 5.52.
